This note sets out measurements from ChEMBL document CHEMBL5291721, “A preclinical secondary pharmacology resource illuminates target-adverse drug reaction associations of marketed drugs” (Nat Commun, 2023).

Bounds are passed on as bounds.

Among the targets are Vasopressin V2 receptor (Homo sapiens, UniProt P30518); Histamine H3 receptor (Homo sapiens, UniProt Q9Y5N1); Vasopressin V1a receptor (Homo sapiens, UniProt P37288).
Test [1] concerns the target T1, 5-hydroxytryptamine receptor 3A (Homo sapiens, UniProt P46098).
T1 sequence (P46098 whole entry): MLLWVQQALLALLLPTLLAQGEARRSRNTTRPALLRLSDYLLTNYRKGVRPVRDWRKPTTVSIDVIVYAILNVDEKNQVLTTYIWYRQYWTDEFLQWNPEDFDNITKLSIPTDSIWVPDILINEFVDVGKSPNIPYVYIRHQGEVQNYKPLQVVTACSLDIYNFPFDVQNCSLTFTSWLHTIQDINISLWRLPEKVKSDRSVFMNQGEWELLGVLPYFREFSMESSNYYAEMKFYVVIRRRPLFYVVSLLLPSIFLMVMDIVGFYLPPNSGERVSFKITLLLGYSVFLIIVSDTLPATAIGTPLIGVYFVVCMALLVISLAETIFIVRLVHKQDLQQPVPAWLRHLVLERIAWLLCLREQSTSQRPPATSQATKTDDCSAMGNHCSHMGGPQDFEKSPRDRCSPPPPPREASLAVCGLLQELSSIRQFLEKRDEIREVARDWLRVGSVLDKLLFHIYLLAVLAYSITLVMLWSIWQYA
The format is functional.

Another test has as its target Cannabinoid receptor 1 (Homo sapiens, UniProt P21554). The format is functional, cell-based.
Test [2] deals with T2, 5-hydroxytryptamine receptor 2C (Homo sapiens, UniProt P28335).
T2 sequence (P28335 whole entry): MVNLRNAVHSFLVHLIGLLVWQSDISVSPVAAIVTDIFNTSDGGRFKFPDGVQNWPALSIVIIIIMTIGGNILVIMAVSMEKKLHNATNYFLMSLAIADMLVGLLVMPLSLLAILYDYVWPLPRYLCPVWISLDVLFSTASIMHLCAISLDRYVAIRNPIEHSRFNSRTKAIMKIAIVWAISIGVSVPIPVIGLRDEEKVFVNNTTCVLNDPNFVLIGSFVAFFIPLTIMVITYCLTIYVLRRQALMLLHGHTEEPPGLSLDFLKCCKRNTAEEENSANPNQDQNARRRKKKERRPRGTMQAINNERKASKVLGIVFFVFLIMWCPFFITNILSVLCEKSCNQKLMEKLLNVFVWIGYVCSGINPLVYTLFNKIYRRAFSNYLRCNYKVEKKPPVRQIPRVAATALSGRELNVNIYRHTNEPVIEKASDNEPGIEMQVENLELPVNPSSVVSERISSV

The target in test [3] is T3, Gastrin/cholecystokinin type B receptor (Homo sapiens, UniProt P32239).
T3 sequence (P32239 whole entry): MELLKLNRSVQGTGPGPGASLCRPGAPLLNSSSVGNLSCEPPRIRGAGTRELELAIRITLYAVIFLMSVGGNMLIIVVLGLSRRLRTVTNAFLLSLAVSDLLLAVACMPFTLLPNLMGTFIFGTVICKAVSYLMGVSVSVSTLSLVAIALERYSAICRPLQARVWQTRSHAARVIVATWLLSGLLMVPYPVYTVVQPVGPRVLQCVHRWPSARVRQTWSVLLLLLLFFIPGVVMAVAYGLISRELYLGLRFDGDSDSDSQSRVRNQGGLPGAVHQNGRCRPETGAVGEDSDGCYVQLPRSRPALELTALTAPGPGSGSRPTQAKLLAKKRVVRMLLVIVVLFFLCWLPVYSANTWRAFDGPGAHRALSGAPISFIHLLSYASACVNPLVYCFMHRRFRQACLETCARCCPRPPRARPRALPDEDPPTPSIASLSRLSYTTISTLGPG

Test [4] addresses 5-hydroxytryptamine receptor 2A (Homo sapiens, UniProt P28223). The format is functional, cell-based.
For test [5], the target named is T4, Muscarinic acetylcholine receptor M1 (Homo sapiens, UniProt P11229).
T4 sequence (P11229 whole entry): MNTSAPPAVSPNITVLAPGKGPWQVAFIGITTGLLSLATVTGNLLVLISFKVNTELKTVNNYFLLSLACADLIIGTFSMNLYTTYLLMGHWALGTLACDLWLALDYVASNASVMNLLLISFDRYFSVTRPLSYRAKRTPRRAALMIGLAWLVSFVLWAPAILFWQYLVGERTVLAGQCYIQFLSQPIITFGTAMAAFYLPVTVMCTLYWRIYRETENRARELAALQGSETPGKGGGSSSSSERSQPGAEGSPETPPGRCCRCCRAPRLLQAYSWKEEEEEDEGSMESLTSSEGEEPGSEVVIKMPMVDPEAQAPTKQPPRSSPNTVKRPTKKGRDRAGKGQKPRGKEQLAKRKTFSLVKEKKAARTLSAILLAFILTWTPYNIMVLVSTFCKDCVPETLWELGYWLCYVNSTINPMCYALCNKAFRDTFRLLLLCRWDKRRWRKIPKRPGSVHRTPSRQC
The format is functional.

The target of test [6] is T5, Type-1 angiotensin II receptor (Homo sapiens, UniProt P30556).
T5 sequence (P30556 whole entry): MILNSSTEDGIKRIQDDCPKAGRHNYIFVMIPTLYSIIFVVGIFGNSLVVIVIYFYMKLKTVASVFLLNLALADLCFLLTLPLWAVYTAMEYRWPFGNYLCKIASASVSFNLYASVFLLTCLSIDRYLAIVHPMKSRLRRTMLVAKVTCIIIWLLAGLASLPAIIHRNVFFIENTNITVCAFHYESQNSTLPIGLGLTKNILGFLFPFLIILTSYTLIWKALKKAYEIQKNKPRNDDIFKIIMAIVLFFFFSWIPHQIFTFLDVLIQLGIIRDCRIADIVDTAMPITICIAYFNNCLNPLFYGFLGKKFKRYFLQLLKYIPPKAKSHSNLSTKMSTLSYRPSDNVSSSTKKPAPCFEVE

In a further test the target is T6, Adenosine receptor A1 (Homo sapiens, UniProt P30542).
T6 sequence (P30542 whole entry): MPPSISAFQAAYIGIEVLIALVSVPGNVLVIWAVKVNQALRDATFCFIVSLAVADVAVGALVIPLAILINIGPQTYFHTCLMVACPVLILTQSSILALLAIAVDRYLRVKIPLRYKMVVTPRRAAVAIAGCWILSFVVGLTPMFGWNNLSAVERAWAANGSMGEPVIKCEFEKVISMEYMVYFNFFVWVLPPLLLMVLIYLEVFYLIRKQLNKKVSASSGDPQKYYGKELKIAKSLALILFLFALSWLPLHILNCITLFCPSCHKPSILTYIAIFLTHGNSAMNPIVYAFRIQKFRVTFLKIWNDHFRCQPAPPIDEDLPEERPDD
Also: assay procedure not described here.

Chain of 5-hydroxytryptamine receptor 2A (P28223 whole entry): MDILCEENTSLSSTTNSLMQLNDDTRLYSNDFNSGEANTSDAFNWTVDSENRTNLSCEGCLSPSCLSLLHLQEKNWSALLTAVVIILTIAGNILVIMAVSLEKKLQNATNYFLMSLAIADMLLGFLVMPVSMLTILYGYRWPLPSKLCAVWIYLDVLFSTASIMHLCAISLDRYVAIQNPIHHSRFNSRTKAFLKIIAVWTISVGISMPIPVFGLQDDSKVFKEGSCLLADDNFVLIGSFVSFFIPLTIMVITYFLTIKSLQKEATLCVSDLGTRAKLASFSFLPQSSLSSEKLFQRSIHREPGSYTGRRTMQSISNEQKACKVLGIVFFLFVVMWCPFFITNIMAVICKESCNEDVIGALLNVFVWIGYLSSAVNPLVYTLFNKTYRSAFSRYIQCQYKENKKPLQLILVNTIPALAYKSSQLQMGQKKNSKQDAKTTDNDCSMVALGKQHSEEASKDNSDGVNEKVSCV
Chain of Vasopressin V1a receptor (P37288 whole entry): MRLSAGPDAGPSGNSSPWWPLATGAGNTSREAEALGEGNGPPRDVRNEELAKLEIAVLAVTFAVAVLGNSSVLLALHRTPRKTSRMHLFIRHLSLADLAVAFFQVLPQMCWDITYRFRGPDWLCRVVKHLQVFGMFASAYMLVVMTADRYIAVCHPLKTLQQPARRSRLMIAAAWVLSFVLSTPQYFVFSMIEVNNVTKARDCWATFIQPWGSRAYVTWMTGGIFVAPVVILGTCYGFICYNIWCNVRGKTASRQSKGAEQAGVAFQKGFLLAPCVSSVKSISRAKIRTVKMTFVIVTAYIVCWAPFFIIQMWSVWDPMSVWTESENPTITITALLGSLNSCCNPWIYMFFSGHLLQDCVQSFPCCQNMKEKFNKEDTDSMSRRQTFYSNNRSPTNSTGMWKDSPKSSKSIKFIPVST
Chain of Cannabinoid receptor 1 (P21554 whole entry): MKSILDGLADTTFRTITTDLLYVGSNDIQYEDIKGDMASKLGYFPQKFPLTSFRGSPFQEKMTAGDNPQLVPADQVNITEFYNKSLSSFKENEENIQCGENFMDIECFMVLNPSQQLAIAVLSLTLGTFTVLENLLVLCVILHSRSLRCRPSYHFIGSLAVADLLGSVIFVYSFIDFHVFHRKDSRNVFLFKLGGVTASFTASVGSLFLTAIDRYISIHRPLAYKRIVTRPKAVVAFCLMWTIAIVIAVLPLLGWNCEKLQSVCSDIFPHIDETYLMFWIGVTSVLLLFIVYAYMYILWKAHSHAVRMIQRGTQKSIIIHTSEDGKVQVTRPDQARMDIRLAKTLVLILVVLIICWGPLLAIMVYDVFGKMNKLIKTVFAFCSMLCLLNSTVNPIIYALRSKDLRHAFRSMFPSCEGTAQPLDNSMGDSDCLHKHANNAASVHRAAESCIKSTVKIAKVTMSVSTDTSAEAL
Chain of Histamine H3 receptor (Q9Y5N1 whole entry): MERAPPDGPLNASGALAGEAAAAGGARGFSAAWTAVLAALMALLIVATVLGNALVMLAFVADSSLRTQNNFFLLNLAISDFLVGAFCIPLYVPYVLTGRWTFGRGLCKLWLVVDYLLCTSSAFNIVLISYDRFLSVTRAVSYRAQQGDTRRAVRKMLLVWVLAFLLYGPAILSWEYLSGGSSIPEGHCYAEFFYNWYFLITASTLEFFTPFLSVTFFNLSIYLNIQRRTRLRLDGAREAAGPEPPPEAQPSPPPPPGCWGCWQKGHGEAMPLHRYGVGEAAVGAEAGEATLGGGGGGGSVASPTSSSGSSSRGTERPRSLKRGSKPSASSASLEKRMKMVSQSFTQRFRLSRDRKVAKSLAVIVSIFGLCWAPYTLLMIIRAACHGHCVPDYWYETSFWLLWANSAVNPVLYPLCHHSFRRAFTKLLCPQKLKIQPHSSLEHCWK
Chain of Vasopressin V2 receptor (P30518 whole entry): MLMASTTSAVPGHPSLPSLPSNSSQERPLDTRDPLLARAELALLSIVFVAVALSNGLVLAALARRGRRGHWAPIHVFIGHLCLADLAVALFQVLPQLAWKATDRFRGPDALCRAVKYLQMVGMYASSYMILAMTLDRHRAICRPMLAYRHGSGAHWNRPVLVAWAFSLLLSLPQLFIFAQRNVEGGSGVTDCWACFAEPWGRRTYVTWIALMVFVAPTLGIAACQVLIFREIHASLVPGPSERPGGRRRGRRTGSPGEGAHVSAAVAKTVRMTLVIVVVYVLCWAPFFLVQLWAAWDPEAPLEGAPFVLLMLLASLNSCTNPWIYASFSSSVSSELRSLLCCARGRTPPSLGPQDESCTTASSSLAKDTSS

Turning to `CC(C)OC(=O)C(C(=O)OC(C)C)=C1SC=CS1` [MALOTILATE], the concentration at half-maximal activity (AC50) (in test [1]; on Vasopressin V2 receptor; at Cannabinoid receptor 1; in [2]; in test [3]; in test [4]) was above 30 µM in each case. Moreover, the AC50 (in test [5]; on Histamine H3 receptor; on Vasopressin V1a receptor; in [6]; on Adenosine receptor A1) was above 30 µM each time.
In the case of `CN(c1nccc(=O)[nH]1)C1CCN(c2nc3ccccc3n2Cc2ccc(F)cc2)CC1` [MIZOLASTINE], the AC50 – broadly, the midpoint of the concentration-response curve, whichever way the signal moves – is above 30 µM in test [1]; above 30 µM on Vasopressin V2 receptor; above 30 µM on Cannabinoid receptor 1; above 10 µM in test [2]; above 30 µM in test [3]; above 30 µM in test [4]. For the same molecule, the concentration at half-maximal activity (AC50) in [5] was 0.011 µM; on Histamine H3 receptor, above 30 µM; on Vasopressin V1a receptor, above 30 µM; in [6], above 30 µM; at Adenosine receptor A1, above 30 µM.
With `CCOC(=O)Nc1ccc2c(c1)N(C(=O)CCN1CCOCC1)c1ccccc1S2` [MORICIZINE], the concentration at half-maximal activity (AC50) (in test [1]; on Vasopressin V2 receptor; at Cannabinoid receptor 1; in test [2]; in [3]; in test [4]) was above 30 µM in each case. Further, the AC50 was 22 µM in test [5]; above 30 µM on Histamine H3 receptor; above 30 µM on Vasopressin V1a receptor; above 30 µM in [6]; above 30 µM on Adenosine receptor A1.
Consider `CC(CCc1ccccc1)NC(C)C(O)c1ccc(O)cc1` (stereo unspecified) [NYLIDRIN], for which the half-maximal activity concentration (AC50) in test [1] was above 10 µM; on Vasopressin V2 receptor it was above 30 µM; at Cannabinoid receptor 1 it was above 30 µM; in test [2], above 30 µM; in test [3] it was above 30 µM; in test [4], above 30 µM. In addition, the AC50 was above 10 µM in [5]; above 10 µM on Histamine H3 receptor; above 10 µM at Vasopressin V1a receptor; above 30 µM in test [6]; above 30 µM at Adenosine receptor A1.
On to `O=C1Nc2ccc(Cl)cc2C(c2ccccc2)=NC1O` (stereo unspecified) [OXAZEPAM], for which the AC50 in [1] was above 10 µM; on Vasopressin V2 receptor, above 30 µM; at Cannabinoid receptor 1, above 30 µM; in [2], above 30 µM; in test [3] it was above 30 µM; in test [4], above 30 µM. For the same molecule, the AC50 in [5] is above 10 µM; on Histamine H3 receptor it was above 10 µM; at Vasopressin V1a receptor it was above 10 µM; in test [6], above 30 µM; at Adenosine receptor A1, above 30 µM.
In the case of `CC[N+]1(C)CCCC(OC(=O)C(O)(c2ccccc2)c2ccccc2)C1` (stereo unspecified) [PIPENZOLATE], the AC50 (in test [1]; on Vasopressin V2 receptor; on Cannabinoid receptor 1; in [2]; in [3]; in [4]) was above 30 µM throughout. Also, the AC50 in test [5] is 0.023 µM; at Histamine H3 receptor it was above 30 µM; on Vasopressin V1a receptor, above 30 µM; in [6] it was above 30 µM; at Adenosine receptor A1 it was above 30 µM.
With `CC(=O)c1ccc2c(c1)N(CCCN1CCC(CCO)CC1)c1ccccc1S2` [PIPERACETAZINE], the AC50 was above 30 µM in [1]; above 30 µM at Vasopressin V2 receptor; above 30 µM at Cannabinoid receptor 1; 11 µM in [2]; above 30 µM in test [3]; 0.3 µM in [4]. The AC50 is 7.9 µM in test [5]; above 30 µM at Histamine H3 receptor; above 30 µM at Vasopressin V1a receptor; above 30 µM in test [6]; above 30 µM on Adenosine receptor A1.
Consider `Cc1ccc(=O)n(-c2ccccc2)c1` [PIRFENIDONE], for which the AC50 (in test [1]; on Vasopressin V2 receptor; on Cannabinoid receptor 1; in test [2]; in test [3]; in [4]) was above 30 µM in each case. Further, the AC50 (in test [5]; on Histamine H3 receptor; on Vasopressin V1a receptor; in [6]; on Adenosine receptor A1) was above 30 µM in each case.
As to `CCN(CC)CC(=O)Oc1ccc(NC(C)=O)cc1` [PROPACETAMOL], the AC50 (in [1]; at Vasopressin V2 receptor; on Cannabinoid receptor 1; in test [2]; in test [3]; in test [4]) was above 30 µM in each case. Besides, the AC50 (in test [5]; at Histamine H3 receptor; at Vasopressin V1a receptor; in test [6]; at Adenosine receptor A1) was above 30 µM in each case.
As for `CCCOC(C(=O)OC1CCN(C)CC1)(c1ccccc1)c1ccccc1` [PROPIVERINE], the AC50 in [1] was above 30 µM; on Vasopressin V2 receptor, above 30 µM; on Cannabinoid receptor 1, above 30 µM; in [2], 9.9 µM; in test [3], above 30 µM; in test [4], 26 µM. The half-maximal activity concentration (AC50) in [5] was 1.7 µM; at Histamine H3 receptor it was above 30 µM; at Vasopressin V1a receptor, above 30 µM; in [6] it was above 30 µM; at Adenosine receptor A1 it was above 30 µM.
As for `Cc1ccc2c(-c3ccccc3)nc(=O)n(C(C)C)c2c1` [PROQUAZONE], the AC50 (in test [1]; at Vasopressin V2 receptor; at Cannabinoid receptor 1; in [2]; in [3]; in test [4]) was above 30 µM throughout. Further, the half-maximal activity concentration (AC50) (in test [5]; at Histamine H3 receptor; on Vasopressin V1a receptor; in [6]; on Adenosine receptor A1) was above 30 µM in each case.
